{"source": "ChEMBL document CHEMBL1201862", "about": "“PubChem BioAssay data set” (2004)", "key": {"[1]": {"target": "Beta-galactosidase (Escherichia coli, UniProt Q8VNN2)", "sequence (Q8VNN2 whole entry)": "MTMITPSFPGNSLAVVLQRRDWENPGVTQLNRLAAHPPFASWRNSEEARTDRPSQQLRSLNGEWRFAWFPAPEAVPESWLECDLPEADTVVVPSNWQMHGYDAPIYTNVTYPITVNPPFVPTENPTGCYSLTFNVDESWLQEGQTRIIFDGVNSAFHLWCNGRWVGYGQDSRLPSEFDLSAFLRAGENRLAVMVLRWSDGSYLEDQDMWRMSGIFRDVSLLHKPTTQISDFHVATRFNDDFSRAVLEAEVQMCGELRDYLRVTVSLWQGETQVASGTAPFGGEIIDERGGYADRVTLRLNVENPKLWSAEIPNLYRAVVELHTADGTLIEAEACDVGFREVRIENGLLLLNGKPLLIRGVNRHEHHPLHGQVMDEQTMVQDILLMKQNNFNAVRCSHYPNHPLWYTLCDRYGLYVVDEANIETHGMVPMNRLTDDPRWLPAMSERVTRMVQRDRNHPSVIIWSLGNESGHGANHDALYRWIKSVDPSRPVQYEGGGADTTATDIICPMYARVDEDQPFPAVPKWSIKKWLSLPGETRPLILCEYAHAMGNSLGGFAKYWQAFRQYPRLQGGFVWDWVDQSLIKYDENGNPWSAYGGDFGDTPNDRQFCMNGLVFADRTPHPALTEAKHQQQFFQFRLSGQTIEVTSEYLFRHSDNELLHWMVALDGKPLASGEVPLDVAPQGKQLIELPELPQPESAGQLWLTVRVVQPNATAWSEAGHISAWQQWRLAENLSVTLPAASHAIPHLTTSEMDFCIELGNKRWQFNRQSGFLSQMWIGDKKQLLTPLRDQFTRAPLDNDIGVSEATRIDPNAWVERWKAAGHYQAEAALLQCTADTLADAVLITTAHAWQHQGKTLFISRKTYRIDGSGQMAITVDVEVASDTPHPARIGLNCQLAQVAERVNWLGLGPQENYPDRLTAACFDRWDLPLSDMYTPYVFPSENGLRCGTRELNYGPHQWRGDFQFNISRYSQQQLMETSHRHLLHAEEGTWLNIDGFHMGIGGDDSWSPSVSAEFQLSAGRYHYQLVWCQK", "test": "PubChem AID 485352", "format": "functional"}, "[2]": {"target": "Nonstructural protein 1 (Influenza A virus, UniProt Q194T2)", "sequence (Q194T2 whole entry)": "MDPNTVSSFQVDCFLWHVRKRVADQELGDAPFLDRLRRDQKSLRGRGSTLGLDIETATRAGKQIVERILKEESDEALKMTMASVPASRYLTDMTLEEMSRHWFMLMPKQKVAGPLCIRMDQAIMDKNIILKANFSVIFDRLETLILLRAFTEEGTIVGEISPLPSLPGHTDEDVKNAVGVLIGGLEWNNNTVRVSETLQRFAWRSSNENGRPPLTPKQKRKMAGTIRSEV", "format": "functional, Influenza A virus (A/California/07/2009(H1N1))"}, "[3]": {"test": "inhibitors of firefly luciferase expression or activity, dose response, H4 neuroglioma cells, luminescence (AID 1990)", "format": "functional, cell-based"}, "[4]": {"test": "luciferase reporter signal reduction – luminescence, H4-C neuroglioblastoma cells, dose response (AID 2458);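 note: H4 neuroglioblastoma cells stably carrying a luciferase reporter gene fusion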", "format": "functional, cell-based"}, "[5]": {"test": "cytotoxicity in HEK-293T cells, dose response, cytotoxicity control for TCR NF-kB inhibitor project, luminescence, T-cell screen hits (AID 489026);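 note: cells exposed to compound about 14 hours before the viability readout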", "format": "functional, cell-based"}, "[6]": {"target": "T1, Serine/threonine-protein phosphatase (Candida dubliniensis (strain CD36 / CBS 7987 / NCPF 3949 / NRRLY-17841) (Yeast), UniProt B9W6M3)", "T1 sequence (B9W6M3 whole entry)": "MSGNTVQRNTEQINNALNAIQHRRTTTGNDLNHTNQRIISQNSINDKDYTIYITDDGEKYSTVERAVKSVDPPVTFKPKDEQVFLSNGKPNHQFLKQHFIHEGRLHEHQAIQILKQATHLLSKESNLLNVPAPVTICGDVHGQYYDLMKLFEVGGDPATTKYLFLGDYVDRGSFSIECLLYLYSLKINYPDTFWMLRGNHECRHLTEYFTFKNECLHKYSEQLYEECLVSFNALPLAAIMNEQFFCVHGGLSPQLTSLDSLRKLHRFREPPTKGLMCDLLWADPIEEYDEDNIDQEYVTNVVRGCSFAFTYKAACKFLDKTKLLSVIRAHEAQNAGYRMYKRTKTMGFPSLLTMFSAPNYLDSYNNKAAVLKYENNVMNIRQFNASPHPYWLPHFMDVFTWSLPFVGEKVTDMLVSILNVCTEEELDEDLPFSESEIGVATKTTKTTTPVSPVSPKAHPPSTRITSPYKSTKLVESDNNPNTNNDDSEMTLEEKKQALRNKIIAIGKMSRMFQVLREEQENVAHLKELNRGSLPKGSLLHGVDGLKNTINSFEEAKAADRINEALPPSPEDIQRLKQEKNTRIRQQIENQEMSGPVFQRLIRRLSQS", "test": "calcineurin pathway inhibitors in yeast reporter, dose response, S. cerevisiae, CDRE-lacZ, luminescence, secondary (AID 2388);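 note: yeast reporter cells carrying a calcineurin-responsive lacZ construct stimulated with calcium chloride; luminescent beta-galactosidase reporter signal in whole cells rather than isolated phosphatase activity; potency for inhibition where a drop in reporter signal means calcineurin blockade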", "format": "functional, cell-based"}, "[7]": {"test": "Luminescence Cell-Based Dose Retest to Confirm Activators of 5'UTR Stem-Loop Driven Alpha-Synuclein mRNA Translation in H4 Neuroglioblastoma Cells. [Related pubchem assays (depositor defined):AID1813, AID1829]", "format": "functional"}, "[8]": {"test": "Luminescence Cell-Based Dose Confirmation HTS to Identify Inhibitors of 5'UTR Stem-Loop Driven Alpha-Synuclein mRNA Translation in H4 Neuroglioblastoma Cells. [Related pubchem assays: 1827 (Project Summary), 1813 (Primary HTS)]", "format": "functional"}, "[9]": {"target": "T2, Type-1 angiotensin II receptor (Homo sapiens, UniProt P30556)", "T2 sequence (P30556 whole entry)": "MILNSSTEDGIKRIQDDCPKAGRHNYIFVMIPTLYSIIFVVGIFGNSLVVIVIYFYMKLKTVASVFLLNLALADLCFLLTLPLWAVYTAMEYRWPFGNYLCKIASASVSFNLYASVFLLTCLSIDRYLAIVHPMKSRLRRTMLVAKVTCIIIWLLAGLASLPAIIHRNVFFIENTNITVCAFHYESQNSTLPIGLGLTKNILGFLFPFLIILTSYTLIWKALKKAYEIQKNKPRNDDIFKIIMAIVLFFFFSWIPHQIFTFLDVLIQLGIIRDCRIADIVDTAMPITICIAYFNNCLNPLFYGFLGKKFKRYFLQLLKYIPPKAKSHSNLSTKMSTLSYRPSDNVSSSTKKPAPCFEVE", "test": "AT1 receptor antagonists, dose response, selectivity assay for APJ receptor antagonist project, cell-based, uHTS hits (AID 463214);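 note: antagonist potency against angiotensin II stimulated AT1 response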", "format": "functional"}, "[10]": {"test": "Luminescence Cell-Based Dose HTS Response to Identify Inhibitors of 5'UTR Stem-Loop Driven Prion Protein mRNA Translation in H4-C Neuroglioblastoma Cells. [Related pubchem assays (depositor defined):AID1814, AID1827]", "format": "functional"}, "[11]": {"test": "Luminescence Cell-Based Dose Response HTS to Identify Inhibitors of 5'UTR Stem-Loop Driven Prion Protein mRNA Translation in H4 Neuroglioblastoma Cells. [Related pubchem assays: 1827 (Project Summary), 1813 (Primary HTS)]", "format": "functional"}, "[12]": {"test": "Luminescence Cell-Based Dose Response HTS to Identify Activators of 5'UTR Stem-Loop Driven Prion Protein mRNA Translation in H4-C Neuroglioblastoma Cells. [Related pubchem assays: 1829 (Project Summary), 1814 (Primary HTS)]", "format": "functional"}, "[13]": {"target": "Induced myeloid leukemia cell differentiation protein Mcl-1 (Homo sapiens, UniProt Q07820)", "sequence (Q07820 whole entry)": "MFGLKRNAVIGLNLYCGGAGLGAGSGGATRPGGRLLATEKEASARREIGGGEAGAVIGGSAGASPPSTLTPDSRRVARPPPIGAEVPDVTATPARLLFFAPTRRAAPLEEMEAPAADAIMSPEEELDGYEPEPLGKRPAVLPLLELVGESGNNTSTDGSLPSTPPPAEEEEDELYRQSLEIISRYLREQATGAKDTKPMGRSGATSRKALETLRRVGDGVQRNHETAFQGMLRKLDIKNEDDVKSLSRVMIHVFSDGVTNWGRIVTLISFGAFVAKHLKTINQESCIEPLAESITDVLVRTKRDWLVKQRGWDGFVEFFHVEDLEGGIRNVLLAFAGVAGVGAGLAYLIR", "format": "functional"}, "[14]": {"target": "ATP-dependent molecular chaperone HSP82 (Candida albicans (strain WO-1) (Yeast), UniProt C4YTQ8)", "sequence (C4YTQ8 whole entry)": "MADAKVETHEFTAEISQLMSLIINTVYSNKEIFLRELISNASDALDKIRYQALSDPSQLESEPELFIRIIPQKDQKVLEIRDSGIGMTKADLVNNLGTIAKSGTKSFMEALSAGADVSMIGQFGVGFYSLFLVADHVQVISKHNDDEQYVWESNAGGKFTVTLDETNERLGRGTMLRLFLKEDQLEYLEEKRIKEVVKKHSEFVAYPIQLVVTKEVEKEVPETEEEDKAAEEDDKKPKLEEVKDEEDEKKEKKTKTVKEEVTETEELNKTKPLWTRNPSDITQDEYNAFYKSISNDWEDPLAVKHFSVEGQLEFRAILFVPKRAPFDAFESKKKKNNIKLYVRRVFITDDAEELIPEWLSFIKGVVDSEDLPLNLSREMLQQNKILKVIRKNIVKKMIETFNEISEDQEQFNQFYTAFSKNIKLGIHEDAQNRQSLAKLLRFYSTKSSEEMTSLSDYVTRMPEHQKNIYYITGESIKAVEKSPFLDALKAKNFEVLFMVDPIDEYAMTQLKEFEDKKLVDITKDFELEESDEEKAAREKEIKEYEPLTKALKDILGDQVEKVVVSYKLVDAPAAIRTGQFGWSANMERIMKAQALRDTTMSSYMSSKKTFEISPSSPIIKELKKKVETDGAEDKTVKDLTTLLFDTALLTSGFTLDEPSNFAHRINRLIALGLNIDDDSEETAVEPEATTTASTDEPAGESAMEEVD", "test": "loss of DOC-induced GRE-beta-galactosidase reporter signal, dose response, Hsp90 inhibitor project, S. cerevisiae, luminescence (AID 2400);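 note: beta-galactosidase luminescence from glucocorticoid response element reporter as proxy for Hsp90 function; inhibitor potency where signal loss means Hsp90 inhibition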", "format": "functional, cell-based"}, "[15]": {"test": "inhibitors of SNCA 5'UTR-driven translation, confirmation, luminescence, H4 neuroglioblastoma cells, dose confirmation (AID 2454);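 note: potency for inhibition of the luciferase signal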", "format": "functional, cell-based"}, "[16]": {"test": "C. albicans growth with fluconazole, confirmation, fluorescence, retest (AID 2467)", "format": "functional, cell-based"}, "[17]": {"system": "Streptococcus sp. 'group A'", "test": "growth inhibition of control SK(-) GAS strain, dose response, counter-screen for streptokinase expression inhibitor project, luminescence, kanamycin, BacTiterGlo, confirmation (AID 1900)", "format": "functional, organism-based"}, "[18]": {"test": "NIH-3T3 fibroblast cytotoxicity, dose response, cytotoxicity control, cell-based, fluorescence, Alamar Blue, secondary assay (AID 2327);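 note: NIH-3T3 mouse fibroblasts cultured with fluconazole at 8 µg/mL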", "format": "functional"}, "[19]": {"test": "cells", "format": "functional, cell-based"}, "[20]": {"test": "Luminescence Cell-Based Dose Response HTS to Identify Activators of Luciferase Translation or Activity in H4-C Neuroglioblastoma Cells. [Related pubchem assays: 1829 (Project Summary), 1814 (Primary HTS)]", "format": "functional"}, "[21]": {"test": "Luminescence Cell-Based Dose Response HTS to Identify Inhibitors of Luciferase Translation or Activity in H4-C Neuroglioblastoma Cells. [Related pubchem assays: 1813 (Primary HTS), 1827 (Project Summary)]", "format": "functional"}, "[22]": {"system": "Streptococcus", "test": "Group A Streptococcus viability loss, dose response, counter-screen for streptokinase expression inhibitor project, luminescence, BacTiterGlo (AID 1915);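 note: potency for reduction of bacterial viability or growth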", "format": "functional, organism-based"}, "[23]": {"test": "inhibitors of SNCA 5'UTR-driven reporter translation, confirmation, H4 neuroglioma cells, luminescence (AID 1988)", "format": "functional, cell-based"}, "[24]": {"test": "cytotoxicity toward NIH3T3 fibroblasts, dose response, counter-screen, cell-based, ATP luminescence, mouse fibroblasts (AID 2010);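 note: cells exposed to compound for about 90 hours before reading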", "format": "functional"}, "[25]": {"test": "inhibitors of intracellular T. cruzi replication, confirmation, NIH3T3 host cells, beta-gal luminescence (AID 2044);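 note: luminescent beta-galactosidase reporter signal from transgenic T. cruzi replicating inside host cells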", "format": "functional, cell-based"}, "[26]": {"target": "T3, Sphingosine 1-phosphate receptor 4 (Homo sapiens, UniProt O95977)", "T3 sequence (O95977 whole entry)": "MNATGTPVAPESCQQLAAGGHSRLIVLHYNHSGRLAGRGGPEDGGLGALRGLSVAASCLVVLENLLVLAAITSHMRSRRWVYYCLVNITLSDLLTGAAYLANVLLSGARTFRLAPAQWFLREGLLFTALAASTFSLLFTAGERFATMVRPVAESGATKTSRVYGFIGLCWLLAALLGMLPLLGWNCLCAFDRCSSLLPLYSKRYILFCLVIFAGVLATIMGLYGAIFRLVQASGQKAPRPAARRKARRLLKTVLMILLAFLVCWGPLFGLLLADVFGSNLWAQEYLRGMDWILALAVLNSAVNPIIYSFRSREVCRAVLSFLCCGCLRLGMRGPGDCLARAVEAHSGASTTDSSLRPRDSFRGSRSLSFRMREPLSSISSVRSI", "test": "Late-stage fluorescence dose response cell-based assay to identify agonists of the Sphingosine 1-Phosphate Receptor 4 (S1P4): purchased compounds EC50. [Related pubchem assays (depositor defined):AID1509, AID1523, AID1563, AID1686, AID1701, AID1801]", "format": "functional"}}, "note": "Activity calls are given as the source filed them. Cut-off read from the data, not from the text of the source, for most assays here: actives have a measured EC50 and inactives only a lower limit.", "data": [{"smiles": "O=[N+]([O-])c1ccc(O)c(/C=N/Nc2ccc(Cl)nn2)c1", "values": [{"measurement": "EC50", "setting": "[1]", "result": "> 40 µM (inactive)"}, {"measurement": "IC50", "setting": "[2]", "result": "1.32 µM (active)"}, {"measurement": "EC50", "setting": "[3]", "result": "9.52 µM (active)"}, {"measurement": "EC50", "setting": "[4]", "result": "0.717 µM (active)"}, {"measurement": "IC50", "setting": "[5]", "result": "> 80 µM (inactive)"}, {"measurement": "EC50", "setting": "[6]", "result": "> 180 µM (inactive)"}, {"measurement": "EC50", "setting": "[7]", "result": "0.673 µM (inconclusive)"}, {"measurement": "EC50", "setting": "[8]", "result": "0.825 µM (active)"}, {"measurement": "IC50", "setting": "[9]", "result": "3.63 µM (active)"}, {"measurement": "EC50", "setting": "[10]", "result": "0.904 µM (active)"}, {"measurement": "EC50", "setting": "[11]", "result": "> 120 µM (not active)"}, {"measurement": "EC50", "setting": "[12]", "result": "0.375 µM (inconclusive)"}, {"measurement": "IC50", "setting": "[13]", "result": "14.1 µM (active)"}, {"measurement": "EC50", "setting": "[14]", "result": "> 150 µM (inactive)"}, {"measurement": "EC50", "setting": "[15]", "result": "0.65 µM (active)"}, {"measurement": "EC50", "setting": "[16]", "result": "0.179 µM (active)"}, {"measurement": "EC50", "setting": "[17]", "result": "0.305 µM (active)"}, {"measurement": "EC50", "setting": "[18]", "result": "14.6 µM (inconclusive)"}, {"measurement": "EC50", "setting": "[19]", "result": "0.779 µM (active)"}, {"measurement": "EC50", "setting": "[20]", "result": "1.05 µM (inconclusive)"}, {"measurement": "EC50", "setting": "[21]", "result": "0.925 µM (active)"}, {"measurement": "EC50", "setting": "[22]", "result": "0.944 µM (active)"}, {"measurement": "EC50", "setting": "[23]", "result": "< 0.1 µM (active)"}, {"measurement": "EC50", "setting": "[24]", "result": "< 6 µM (inconclusive)"}, {"measurement": "EC50", "setting": "[25]", "result": "0.633 µM (active)"}]}, {"smiles": "Cc1ccc(Cn2nc(C)c(C(=O)OC(C)C(=O)NCc3ccccc3)c2Cl)cc1", "note": "(stereo unspecified)", "values": [{"measurement": "EC50", "setting": "[26]", "result": "> 50 µM (inactive)"}]}]}
